Patent US7943632B2, “High potency dopaminergic treatment of neurological impairment associated with brain injury” (NeuroHealing Pharmaceuticals, Inc., priority 2003, dated 2011)

What was measured:
[1] = tested on: patients of post-traumatic brain injury vegetative state (VS) and minimally conscious state (MCS); experiment: Apomorphine open label study, Coma/Near Coma (CNC) Scale; type: in vivo, human
[2] = tested on: patients of post-traumatic brain injury vegetative state (VS) and minimally conscious state (MCS); experiment: Apomorphine open label study, Disability Rating Scale; type: in vivo, human
[3] = tested on: patients of post-traumatic brain injury vegetative state (VS) and minimally conscious state (MCS); experiment: Apomorphine open label study, Extended Glasgow Outcome Scale (GOS-E); type: in vivo, human
[4] = tested on: patients of post-traumatic brain injury vegetative state (VS) and minimally conscious state (MCS); experiment: Apomorphine open label study, efficacy observations; type: in vivo, human
Description: The patients received the maximum tolerated dose, 12 to 16 hours per day, for up to 84 days (or shorter or longer as indicated). If the patient developed an adverse event, the dose was reduced or eliminated, according to the opinion of the attending physician. To prevent side effects from dopaminergic stimulation (such as nausea), domperidone was administered starting 24-72 hours (h) prior to initiation of the drug therapy.

[5] = tested on: patients of post-traumatic brain injury vegetative state (VS) and minimally conscious state (MCS); conditions: in vivo
[6] = cited from earlier work
[7] = tested on: D2-like dopamine receptors; conditions: cited from earlier work
[8] = cited from earlier work; remark: listed apart in the source
[9] = tested on: patients of post-traumatic brain injury vegetative state (VS) and minimally conscious state (MCS); experiment: Apomorphine open label study, safety observations; conditions: Patient 02; approximately 4 months from the accident, dosing interrupted Day 47
[10] = tested on: Patient 01, traumatic brain injury (TBI); experiment: Prior drug treatment in clinical history of Patient 01; type: in vivo, human; conditions: 15 mg/day for 12 days, before apomorphine study
[11] = Patient 01, Day 7 of s.c. apomorphine
[12] = Patient 01, Day 180, study termination
[13] = Patient 02, Day 7 of s.c. apomorphine
[14] = Patient 03, Day 7 of s.c. apomorphine
[15] = Patient 03, Day 180, treatment discontinued Day 84

CN1CCc2cccc3c2[C@H]1Cc1ccc(O)c(O)c1-3 [apomorphine, (R)-5,6,6a,7-tetrahydro-6-methyl-4H-dibenzo[de,g]quinolin-10,11-diol]
CNC ([1]; Patient 01, Day 0 (baseline)): 20
CNC [1, 11]: 2
CNC ([1]; Patient 01, Day 14): 0
CNC ([1]; Patient 01, Day 21): 0
CNC ([1]; Patient 01, Day 28): 0
CNC ([1]; Patient 01, Day 42): 0
CNC ([1]; Patient 01, Day 56): 0
CNC ([1]; Patient 01, Day 70): 0
CNC ([1]; Patient 01, Day 84): 0
CNC [1, 12]: 0
CNC ([1]; Patient 02, Day 0 (baseline)): 36
CNC ([1]; Patient 02, Day 0 (baseline), listed as Apomorphine): 37
CNC [1, 13]: 33
CNC ([1]; Patient 02, Day 14): 24
CNC ([1]; Patient 02, Day 21): 24
CNC ([1]; Patient 02, Day 28): 24
CNC ([1]; Patient 02, Day 42): 26
CNC ([1]; Patient 03, Day 0 (baseline)): 33
CNC [1, 14]: 22
CNC ([1]; Patient 03, Day 14): 18
CNC ([1]; Patient 03, Day 21): 12
CNC ([1]; Patient 03, Day 28): 12
CNC ([1]; Patient 03, Day 42): 16
CNC ([1]; Patient 03, Day 56): 16
CNC ([1]; Patient 03, Day 70): 12
CNC ([1]; Patient 03, Day 84): 8
CNC [1, 15]: 0
DRS ([2]; Patient 01, Day 0 (baseline)): 21
DRS [2, 11]: 13
DRS ([2]; Patient 01, Day 14): 13
DRS ([2]; Patient 01, Day 21): 12.5
DRS ([2]; Patient 01, Day 28): 12.5
DRS ([2]; Patient 01, Day 42): 12
DRS ([2]; Patient 01, Day 56): 10.5
DRS ([2]; Patient 01, Day 70): 10.5
DRS ([2]; Patient 01, Day 84): 10
DRS [2, 12]: 15
DRS ([2]; Patient 02, Day 0 (baseline)): 26
DRS [2, 13]: 24
DRS ([2]; Patient 02, Day 14): 19
DRS ([2]; Patient 02, Day 21): 22
DRS ([2]; Patient 02, Day 28): 22
DRS ([2]; Patient 03, Day 0 (baseline)): 23
DRS [2, 14]: 22
DRS ([2]; Patient 03, Day 14): 22
DRS ([2]; Patient 03, Day 21): 22
DRS ([2]; Patient 03, Day 28): 22
DRS ([2]; Patient 03, Day 42): 22
DRS ([2]; Patient 03, Day 56): 22
DRS ([2]; Patient 03, Day 70): 22
DRS ([2]; Patient 03, Day 84): 21
DRS [2, 15]: 12
GOS-E ([3]; Patient 01, Day 7): 3
GOS-E ([3]; Patient 01, Day 14): 3
GOS-E ([3]; Patient 01, Day 84): 3
GOS-E [3, 12]: 3
GOS-E ([3]; Patient 03, Day 84): 3
GOS-E ([3]; Patient 03, baseline): 2
Efficacy observation ([4]; Patient 01, Day 1, hours after initial dosing, 2 mg/h): moved right thumb to command
Efficacy observation ([4]; Patient 01, Day 2, 4 mg/h): moved limbs on command and answered yes/no questions
Efficacy observation ([4]; Patient 01, Day 3, 6 mg/h): Spoke by phone with sibling and named four friends in their room
Efficacy observation ([4]; Patient 01, Day 4, 8 mg/h): named objects and associated them with their function
Efficacy observation ([4]; Patient 01, Day 5, 8 mg/h): oriented to physician's last name and name of the institution
Effect of pump remaining off for two hours ([4]; Patient 01, Day 18): decrease in their awareness status
Time to regain “on” status after reconnection of the pump ([4]; Patient 01, Day 18): ≤ 15 min
Effect of attempt to discontinue the treatment ([4]; Patient 01, Day 84): regressed to an “off” state
Day of trial on which patient started to follow simple commands ([4]; Patient 02): 9
Efficacy observation ([4]; Patient 02, first two weeks of drug administration, maintained until the bleeding event): improvement in the patient's consciousness state
Efficacy observation ([4]; Patient 03, Day 2): started to vocalize words
Efficacy observation ([4]; Patient 03, Day 62): started to clearly respond to commands, recognize family members, respond to their name and respond to their age
Effect of first attempt to discontinue drug ([4]; Patient 03, Day 84): maintained their motor and cognitive improvements
Overall efficacy on altered consciousness state ([4]; Patients 01, 02 and 03 after traumatic brain injury): effective at improving the altered consciousness state
Adverse event [5]: seizure
Adverse events [5]: agitation and fever
Dyskinesias and hallucinations after dose reduction [5]: disappeared
ECG and clinical labs [5]: no abnormal values
Tolerability of dose escalation ([5]; sc): well tolerated
Absorption and clearance ([6]; from subcutaneous tissues): rapidly and completely absorbed from subcutaneous tissues and is rapidly cleared
Absorption ([6]; parenterally administered): rapidly and completely absorbed
Affinity for D2-like dopamine receptors [7]: particularly high affinity
Incidence of psychological effects ([8]; compared with other dopaminergic agents): lower incidence of psychological effects
Injection site reaction ([8]; subcutaneous administration at a concentration of 10 mg/ml): nodule formation (panniculitis) may occur
Patient outcome [9]: died

COC(=O)C(c1ccccc1)C1CCCCN1 (stereo not drawn) [methylphenidate]
Response to treatment [10]: no response to treatment
